Data on 18 molecules can be found in paper PMC11259170, “Small-molecule probe for IBD risk variant GPR65 I231L alters cytokine signaling networks through positive allosteric modulation” (Science Advances, 2024).

Read-outs that look alike come from different tables or passages of the source.

One assay deals with T1, hGPR65 (Homo sapiens, UniProt Q8IYL9).
T1 construct: expressed in transfected cells; host or cells: HeLa (ATCC CCL-2), lentiviral transduction, pLX317
Put plainly: cAMP detection in HeLa expression cell line, hGPR65. It counts as cell-based. The note with it: for EC50: read-out: hGPR EC50; for Emax: HeLa, relative to 100uM forskolin (100%) and DMSO (0%), read-out: hGPR Max Activity %. The protocol: (§1) HeLa stable expression cell lines were produced by lentiviral transduction. Briefly, lentiviral plasmids for each GPCR with a C-terminal V5 Tag ([…]) were made in a pLX317 backbone using competent Escherichia coli (New England Biolabs, C3050H). Lenti-X 293 T (Takara, 632810) cells were transfected with the lentiviral plasmids to produce virus. Low-passage HeLa cells (American Type Culture Collection, CCL-2) were then transduced with lentivirus. After 48 hours, HeLa cells were cultured under selection with puromycin (3 μg/ml) and allowed to recover and expand before storing stocks in liquid nitrogen.
(§2) cAMP was measured in cells using the Lance Ultra cAMP Kit. HeLa cells were cultured under puromycin (3 μg/ml) selection. One day before the experiment, cells were seeded in T75 flasks and allowed to adhere overnight. On the day of the experiment, cells were washed twice with Dulbecco’s PBS and lifted using prewarmed 1× versene solution (Gibco, 15040066). Cells were counted in HBSS (Gibco, 14025092) and then resuspended in stimulation buffer prepared according to the manufacturer’s instructions and adjusted to pH 7.2 using 1 M sodium hydroxide. Cells were added to the plate at a density of 1500 cells per well in white opaque 384-well assay ready microplates containing 100 nl of 10 mM compound in DMSO. Cells were stimulated for 30 min at RT, then lysed and incubated with detection reagents for 1 hour in the dark at RT. Plates were read on BMG Labtech PHERAstar FSX (excitation, 337 nm; emission, 620 and 665 nm). Data analysis was performed using GraphPad Prism.

The target in the next assay is T2, mGPR65 (Mus musculus, UniProt Q61038).
T2 construct: expressed in transfected cells; host or cells: HeLa (ATCC CCL-2), lentiviral transduction, pLX317
Kind of assay: cAMP detection in HeLa expression cell line, mGPR65. The settings on record: for EC50: read-out: mGPR EC50; for Emax: HeLa, read-out: mGPR Max Activity %; for Emax / mGPR Max Activity: relative to 100uM forskolin (100%) and DMSO (0%). It is filed as cell-based. The procedure: as §1, §2

The mark [1] stands for this setting: 1st hGPR column pair, NA = no activity.
Where [2] appears, read: 2nd hGPR column pair, NA = no activity.
Where [3] appears, read: 1st mGPR column pair, NA = no activity.
Where [4] appears, read: 2nd mGPR column pair, NA = no activity.
Where [5] appears, read: 3rd mGPR column pair, NA = no activity.

T2 sequence (Q61038 whole entry): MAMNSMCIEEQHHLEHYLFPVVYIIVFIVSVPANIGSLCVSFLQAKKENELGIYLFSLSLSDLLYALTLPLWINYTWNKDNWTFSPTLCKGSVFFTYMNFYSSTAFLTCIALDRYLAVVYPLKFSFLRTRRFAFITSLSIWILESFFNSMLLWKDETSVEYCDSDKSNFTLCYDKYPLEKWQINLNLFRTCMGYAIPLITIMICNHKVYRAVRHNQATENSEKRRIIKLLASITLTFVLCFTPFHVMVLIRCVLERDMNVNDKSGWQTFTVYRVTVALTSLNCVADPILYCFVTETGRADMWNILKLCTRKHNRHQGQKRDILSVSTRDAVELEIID
T1 sequence (Q8IYL9 whole entry): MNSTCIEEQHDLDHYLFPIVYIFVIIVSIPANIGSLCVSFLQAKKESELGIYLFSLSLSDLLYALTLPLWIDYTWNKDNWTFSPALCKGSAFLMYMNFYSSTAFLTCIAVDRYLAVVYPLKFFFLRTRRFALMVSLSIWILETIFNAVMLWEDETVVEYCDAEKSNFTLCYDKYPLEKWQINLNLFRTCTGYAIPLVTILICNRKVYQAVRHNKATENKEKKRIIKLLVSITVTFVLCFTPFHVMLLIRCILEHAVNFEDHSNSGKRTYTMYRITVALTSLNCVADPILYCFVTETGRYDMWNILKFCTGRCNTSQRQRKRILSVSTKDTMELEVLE

On to `COCc1ccc(-c2cc(O)n3ncc(C(=O)Nc4ccc(C(=O)OC)cc4)c3n2)cc1` [BRD0592], for which the concentration for a half-maximal effect (EC50) (commonly the concentration that produces a half-maximal response) on hGPR65 (setting [1]) came to 1.27 µM; at hGPR65 (setting [2]) it was 1.25 µM; at mGPR65 (setting [3]), 0.82 µM; at mGPR65 (setting [4]) it was 0.563 µM. In addition, the Emax at hGPR65 (setting [1]) was determined as 68.9%; on hGPR65 (setting [2]) it was 68.2%; on mGPR65 (setting [4]), 57%; at mGPR65 (NA = no activity), 64.1%.

`Cc1ccc(NC(=O)c2cnn3c(O)cc(-c4ccc(-c5ccccc5O)cc4)nc23)cc1` [BRD1689]: the EC50 on hGPR65 (setting [1]) came out at 3.57 µM; at hGPR65 (setting [2]), 5.62 µM; on mGPR65 (setting [3]), 1.58 µM; at mGPR65 (setting [4]) it was 2.04 µM. Further, the Emax on hGPR65 (setting [1]) came out at 79%; on hGPR65 (setting [2]) it was 74.3%; at mGPR65 (setting [4]), 45.5%; on mGPR65 (NA = no activity), 54%.

For `COCc1ccc(-c2cc(OC)n3ncc(C(=O)Nc4ccc(C)cc4)c3n2)cc1` [BRD2344], the EC50 on mGPR65 (setting [3]) stood at 0.737 µM. For the same molecule, the Emax on mGPR65 (NA = no activity) was 4.13%.

Regarding `COCc1ccc(-c2cc(O)n3nccc3n2)cc1` [BRD2453], at hGPR65 (setting [1]), the EC50 was found to be 18.6 µM and the Emax is 11.7%.

For `Cc1ccc(NC(=O)c2cnn3c(O)cc(Cc4c[nH]c5ccccc45)nc23)cc1` [BRD2917], the EC50 on mGPR65 (setting [3]) worked out at 18.9 µM. In addition, at mGPR65 (NA = no activity), the Emax stood at 7.25%.

Regarding `Cc1ccc(NC(=O)c2cnn3c(O)cc(-c4ccc(Oc5ccccc5)cc4)nc23)cc1` [BRD3067], the Emax on hGPR65 (first pair) worked out at 36.3%. For the same molecule, the EC50 on hGPR65 (SAR cAMP assay, first EC50/Max pair of hGPR columns) came to 11.1 µM.

On to `COCc1ccc(-c2cc(O)n3ncc(C(=O)N4CCS(=O)(=O)CC4)c3n2)cc1` [BRD3128], for which, at hGPR65 (setting [1]), the EC50 amounted to 11 µM and the Emax stood at 3.44%.

As for `COCc1ccc(-c2cc(O)n3ncc(C(=O)NCc4ccc(C)cc4)c3n2)cc1` [BRD4305], the EC50 at mGPR65 (setting [3]) is 2.31 µM; at mGPR65 (setting [4]) it was 1.44 µM; on mGPR65 (setting [5]), 1.07 µM. For the same molecule, the Emax turned out to be 36.9% at mGPR65 (setting [4]) and 67.8% on mGPR65 (NA = no activity). Besides, the “mGPR Max Activity” value on mGPR65 (NA = no activity) came out at 60.85%.

Turning to `Cc1ccc(NC(=O)c2cnn3c(O)cc(C(C)Cn4nccc4C)nc23)cc1` (stereo not drawn) [BRD4822], the results for the EC50 on mGPR65 (setting [3]), on mGPR65 (setting [4]) and on mGPR65 (setting [5]) were 2.82 µM, 4.33 µM and 1.19 µM, respectively. For the same molecule, the Emax turned out to be 25.4% at mGPR65 (setting [4]) and 42% at mGPR65 (NA = no activity). Also, the “mGPR Max Activity” value at mGPR65 (NA = no activity) is on record as 35.73%.

With `Cc1[nH]c2ccccc2c1Cc1cc(O)n2ncc(C(=O)Nc3ccccc3)c2n1` [BRD5828], the values for the EC50 at mGPR65 (setting [3]) and at mGPR65 (setting [4]) were 0.649 µM and 0.785 µM, respectively. Moreover, the results for the Emax at mGPR65 (setting [4]) and on mGPR65 (NA = no activity) were 18.4% and 25.8%, respectively.

As to `Cc1ccc(NC(=O)c2cnn3c(O)cc(CCc4c(C)n[nH]c4C)nc23)cc1` [BRD5908], the EC50 on mGPR65 (setting [3]) was determined as 33 µM. At mGPR65 (NA = no activity), the Emax stood at 22.1%.

As for `COc1ccc(-c2ccn3ncc(C(=O)Nc4ccc(C)cc4)c3n2)cc1` [BRD6737], on hGPR65 (setting [1]), the EC50 came to 0.0844 µM and the Emax amounted to 7.95%.

Take `COc1cccc(Cc2cc(O)n3ncc(C(=O)Nc4ccccc4)c3n2)c1` [BRD7897]: the concentration for a half-maximal effect (EC50) on mGPR65 (setting [3]) stood at 6.48 µM. In addition, the Emax on mGPR65 (NA = no activity) was roughly 22.7%.

Consider `Cc1ccc(NC(=O)c2cnn3c(O)cc(-c4ccc(-c5ccc(C(C)C)cc5)cc4)nc23)cc1` [BRD7984], for which, at mGPR65 (first pair), the Emax amounted to 12.4%. Also, the EC50 on mGPR65 (SAR cAMP assay, first EC50/Max pair) is 0.11 µM.

Take `Cc1ccc(NC(=O)c2cnn3c(O)cc(-c4ccc(N5CCCN(C)CC5)cc4)nc23)cc1` [BRD8425]: the Emax on mGPR65 (first pair) amounted to 65.4%.

As to `Cc1ccc(NC(=O)c2cnn3c(O)cc(CCc4c(C)noc4C)nc23)cc1` [BRD8568], on hGPR65 (setting [1]), the EC50 was 3.06 µM and the Emax stood at 3.77%.

On to `CCN1CC(c2cc(O)n3ncc(C(=O)Nc4ccc(Cl)cc4)c3n2)CC1=O` (stereo not drawn) [BRD8856], for which the 50% effective concentration (EC50) on mGPR65 (setting [3]) is 0.662 µM. At mGPR65 (NA = no activity), the Emax came out at 10.9%.

In the case of `CCOC(=O)c1cnn2c(O)cc(C)nc12` [BRD9804], on hGPR65 (setting [1]), the EC50 came out at 77.6 µM and the Emax was found to be 5.41%.
